Data: US20250340563A1, “FUSED PYRIDAZINE DERIVATIVES AS NLRP3 INHIBITORS” (Takeda Pharmaceutical Company Limited, priority 2022, published 2025)

What was measured:
NF-κB pathway = assay: TNF-α assay in IFN-γ-differentiated, LPS-stimulated THP-1 cells (ELISA); format: cell-based; settings: Homo sapiens, 50 ng/mL LPS, 3 hours
Method in brief: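 THP-1 cells differentiated with 25 ng/mL IFN-γ for 24 h, then preincubated 30 min at 37 °C with compound (1:3.16 serial dilutions) in serum-free medium. Stimulated with 50 ng/mL LPS for 3 h; supernatant assayed by human TNF-α ELISA. IC50 from four-parameter logistic fit of % inhibition.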

NLRP3 inflammasome = NLRP3 inflammasome (Homo sapiens, UniProt Q96P20); assay: IL-1β assay in IFN-γ-differentiated, LPS-primed, ATP-activated THP-1 cells (ELISA); format: cell-based; settings: 50 ng/mL LPS priming, 2.5 mM ATP activation, 2 hours
NLRP3 inflammasome, sequence (Q96P20 whole entry): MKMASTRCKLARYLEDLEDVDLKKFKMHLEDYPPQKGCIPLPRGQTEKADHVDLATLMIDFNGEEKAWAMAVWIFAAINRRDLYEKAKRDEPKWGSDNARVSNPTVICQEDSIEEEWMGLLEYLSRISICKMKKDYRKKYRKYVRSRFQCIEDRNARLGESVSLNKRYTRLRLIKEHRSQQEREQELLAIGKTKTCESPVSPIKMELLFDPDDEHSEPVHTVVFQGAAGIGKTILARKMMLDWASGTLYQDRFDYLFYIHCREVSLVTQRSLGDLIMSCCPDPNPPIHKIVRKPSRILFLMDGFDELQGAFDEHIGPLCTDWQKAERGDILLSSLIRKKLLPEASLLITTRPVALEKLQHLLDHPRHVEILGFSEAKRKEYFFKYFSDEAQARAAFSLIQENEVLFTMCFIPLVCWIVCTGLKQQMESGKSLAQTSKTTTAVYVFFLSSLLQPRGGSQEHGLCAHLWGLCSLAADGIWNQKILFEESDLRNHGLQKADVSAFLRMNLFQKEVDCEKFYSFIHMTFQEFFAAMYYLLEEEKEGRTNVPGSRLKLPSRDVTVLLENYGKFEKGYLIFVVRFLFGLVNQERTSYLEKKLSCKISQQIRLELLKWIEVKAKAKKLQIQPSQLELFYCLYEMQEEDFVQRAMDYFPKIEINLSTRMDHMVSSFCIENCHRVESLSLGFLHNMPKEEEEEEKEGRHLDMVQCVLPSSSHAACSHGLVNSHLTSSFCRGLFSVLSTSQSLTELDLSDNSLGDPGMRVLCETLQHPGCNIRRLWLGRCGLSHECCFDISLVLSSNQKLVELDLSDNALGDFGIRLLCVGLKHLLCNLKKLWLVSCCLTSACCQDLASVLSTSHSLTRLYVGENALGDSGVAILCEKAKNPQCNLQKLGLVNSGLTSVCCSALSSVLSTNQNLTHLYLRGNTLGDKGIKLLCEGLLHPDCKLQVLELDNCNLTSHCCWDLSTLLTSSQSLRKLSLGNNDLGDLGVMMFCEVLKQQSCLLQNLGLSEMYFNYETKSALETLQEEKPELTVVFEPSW
Method in brief: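 Supernatant IL-1β is quantified by ELISA after 2 h of 2.5 mM ATP stimulation at 37 °C, with IC50 taken from a four-parameter fit of % inhibition. Before this, THP-1 macrophages (25 ng/mL IFN-γ, 24 h) were LPS-primed (50 ng/mL, 24 h, no FBS) and exposed to serially diluted compound for 30 min.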

MDR1 (P-gp) = target: T1, MDR1 (P-gp) (Homo sapiens, UniProt P08183); assay: MDCK-MDR1 assay (apparent permeability and efflux ratio); format: in vitro ADME; settings: dog; for efflux ratio at 60 min, 1 µM: pH 7.4, MDCK-MDR1, P-gp mediated efflux ratio, read-out: MDR1 ER; for Papp A→B at 60 min, 1 µM: MDCK-MDR1 monolayer, apical to basolateral, pH 7.4, 60 minutes
T1 construct: expressed in transfected cells; host or cells: Madin-Darby Canine Kidney (MDCK) cells
T1 sequence (P08183 whole entry, species assumed): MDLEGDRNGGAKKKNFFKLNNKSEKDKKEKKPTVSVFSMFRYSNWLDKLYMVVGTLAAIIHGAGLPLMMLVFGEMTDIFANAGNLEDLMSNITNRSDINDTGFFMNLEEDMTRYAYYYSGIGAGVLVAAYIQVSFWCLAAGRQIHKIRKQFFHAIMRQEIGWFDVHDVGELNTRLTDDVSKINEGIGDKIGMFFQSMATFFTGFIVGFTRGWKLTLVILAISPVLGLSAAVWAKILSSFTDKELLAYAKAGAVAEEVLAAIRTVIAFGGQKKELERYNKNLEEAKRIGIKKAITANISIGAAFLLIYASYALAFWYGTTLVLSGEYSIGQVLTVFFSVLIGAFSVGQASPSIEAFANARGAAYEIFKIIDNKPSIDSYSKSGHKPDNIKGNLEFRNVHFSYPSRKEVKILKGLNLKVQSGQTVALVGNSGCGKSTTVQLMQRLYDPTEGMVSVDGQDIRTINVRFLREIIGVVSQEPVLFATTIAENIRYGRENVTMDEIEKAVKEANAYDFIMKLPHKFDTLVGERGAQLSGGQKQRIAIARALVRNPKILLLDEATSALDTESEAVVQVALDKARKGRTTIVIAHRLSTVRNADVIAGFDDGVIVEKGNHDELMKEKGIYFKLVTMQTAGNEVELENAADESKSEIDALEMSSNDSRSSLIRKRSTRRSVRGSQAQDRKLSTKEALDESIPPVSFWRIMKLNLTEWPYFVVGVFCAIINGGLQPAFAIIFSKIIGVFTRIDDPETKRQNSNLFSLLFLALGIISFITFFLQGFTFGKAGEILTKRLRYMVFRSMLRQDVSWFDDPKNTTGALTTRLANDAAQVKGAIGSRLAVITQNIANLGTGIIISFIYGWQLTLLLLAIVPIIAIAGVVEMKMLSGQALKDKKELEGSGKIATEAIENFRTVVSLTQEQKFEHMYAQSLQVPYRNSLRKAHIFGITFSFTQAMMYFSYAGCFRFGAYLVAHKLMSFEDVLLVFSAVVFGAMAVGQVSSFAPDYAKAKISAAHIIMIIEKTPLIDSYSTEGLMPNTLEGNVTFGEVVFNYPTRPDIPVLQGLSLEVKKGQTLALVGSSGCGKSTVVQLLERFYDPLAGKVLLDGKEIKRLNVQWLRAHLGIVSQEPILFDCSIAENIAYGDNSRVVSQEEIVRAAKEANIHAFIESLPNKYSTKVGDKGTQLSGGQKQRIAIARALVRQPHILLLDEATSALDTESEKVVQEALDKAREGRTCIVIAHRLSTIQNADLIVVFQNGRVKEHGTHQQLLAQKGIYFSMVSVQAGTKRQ
Description: Madine-Darby Canine Kidney (MDCK) cells transfected with Multidrug resistance protein 1 (MDR1) are maintained in accordance with the provider's instructions in Dulbecco's Modified Eagle media (DMEM, Fisher Scientific Cat #10569044). DMEM is supplemented with 10% heat inactivated fetal bovine serum (Gibco Cat #16000-044), Penicillin-Streptomycin (100 units/mL) (Gibco Cat #15140122) and an inducer of P-gp, colchicine (200 nM) (Sigma Cat #C9754). The cells are seeded onto the apical side of HTS-Transwell-96 Plates (0.4 μm pore size, Corning Cat #3381) at a density of 6.25×10^3 cells per well with 75 μL and 250 μL of DMEM media in apical and basolateral wells, respectively, and are incubated at 37° C./5% CO2. Fresh DMEM media is exchanged in the apical and basolateral compartments after 72 hours and cells are allowed to grow into a monolayer for 144 hours before beginning the experimental incubation. Incubations are performed in Hanks' Balanced Salt Solution (HBSS, Fisher Scientific Cat #14025134) at pH 7.4 with 1% Bovine Serum Albumin (Sigma, Cat #A9418) and 10 mM HEPES (Fisher Scientific, Cat #15630080). DMEM media is removed and cells are rinsed with warm (37° C.) HBSS. HBSS with test compound at 1p M substrate concentration (0.1% v/v DMSO) is added to either the apical or basolateral compartment (75 μL or 250 μL, respectively) and blank HBSS buffer is added to the compartment which lacks test compound in singlicate. The cells are incubated for 60 minutes at 37° C./5% CO2. At the end of the incubation period, 50 μL of sample is removed from each receiver compartment and diluted into 150 μL of acetonitrile (Fisher Scientific, Cat #A996SK4)+0.1% formic acid (Sigma, Cat #F0507). The samples are centrifuged at 2000 rcf for 10 minutes at 4° C., after which 100 μL of supernatant is transferred to a new microplate and diluted with 100 μL of HPLC grade water (Fisher Scientific, Cat #W64). Samples are analyzed using a triple quadrupole mass spectrometer API-5500QTrap (ABSciex, Serial No. AU23291006) along with associated autosampler and high performance liquid chromatography pump instrumentation optimized for the detection of test articles through a Kinetix 2.1×50 mm C18 100 Å column (Phenomenex, Cat #00B-4605-AN).
Apparent permeability (Papp) values and efflux ratio are calculated using the following equations: […]

| SMILES | IC50 (NF-κB pathway) [nM] | IC50 (NLRP3 inflammasome) [nM] | efflux ratio at 60 min, 1 µM (MDR1 (P-gp)) | Papp A→B at 60 min, 1 µM (MDR1 (P-gp)) [×10⁻⁶ cm/s] |
| --- | --- | --- | --- | --- |
| COc1ccc(-c2nnc(N[C@@H]3C[C@@H](F)CN(C)C3)c3c2CCOC3)c(F)c1 [Example 215, N-((3R,5R)-5-fluoro-1-methylpiperidin-3-yl)-1-(2-fluoro-4-methoxyphenyl)-7,8-dihydro-5H-pyrano[3,4-d]pyridazin-4-amine] | > 30000 | 160 |  |  |
| COc1ccc(-c2nnc(N[C@@H]3C[C@@H](F)CN(C)C3)c3c2CCOC3)c(C(F)(F)F)c1 [Example 216, N-((3R,5R)-5-fluoro-1-methylpiperidin-3-yl)-1-(4-methoxy-2-(trifluoromethyl)phenyl)-7,8-dihydro-5H-pyrano[3,4-d]pyridazin-4-amine] | > 30000 | 373 |  |  |
| CN1C[C@H](F)C[C@@H](Nc2nnc(-c3ccc(Cl)cc3F)c3c2COCC3)C1 [Example 217, 1-(4-chloro-2-fluorophenyl)-N-((3R,5R)-5-fluoro-1-methylpiperidin-3-yl)-7,8-dihydro-5H-pyrano[3,4-d]pyridazin-4-amine] | > 30000 | 876 |  |  |
| Cc1ccc(-c2nnc(N[C@@H]3CCCN(C)C3)c3c2CCOC3)c(O)c1 [Example 218, (R)-5-methyl-2-(4-((1-methylpiperidin-3-yl)amino)-7,8-dihydro-5H-pyrano[3,4-d]pyridazin-1-yl)phenol] | > 30000 | 2 | 26 | 1.2 |
| CN1C[C@H](F)C[C@@H](Nc2nnc(-c3ccc(F)cc3O)c3c2COCC3)C1 [Example 219, 5-fluoro-2-(4-(((3R,5R)-5-fluoro-1-methylpiperidin-3-yl)amino)-7,8-dihydro-5H-pyrano[3,4-d]pyridazin-1-yl)phenol] | > 30000 | 8 | 13 | 4.7 |
| Cc1ccc(-c2nnc(N[C@@H]3C[C@@H](F)CN(C)C3)c3c2CCOC3)c(O)c1 [Example 220, 2-(4-(((3R,5R)-5-fluoro-1-methylpiperidin-3-yl)amino)-7,8-dihydro-5H-pyrano[3,4-d]pyridazin-1-yl)-5-methylphenol] | > 30000 | 8 | 9 | 1.5 |
| COc1ccc(-c2nnc(N[C@@H]3CCCN(C)C3)c3c2CCOC3)c(O)c1 [Example 221, (R)-5-methoxy-2-(4-((1-methylpiperidin-3-yl)amino)-7,8-dihydro-5H-pyrano[3,4-d]pyridazin-1-yl)phenol] | > 30000 | 3 | 30 | 1 |
| COc1ccc(-c2nnc(N[C@@H]3CCCN(C)C3)c3c2CCOC3)cc1 [Example 222, (R)-1-(4-methoxyphenyl)-N-(1-methylpiperidin-3-yl)-7,8-dihydro-5H-pyrano[3,4-d]pyridazin-4-amine] | > 30000 | 49 |  |  |
| CN1CCC[C@@H](Nc2nnc(-c3ccc(Cl)cc3O)c3c2CCOC3)C1 [Example 224, (R)-5-chloro-2-(1-((1-methylpiperidin-3-yl)amino)-7,8-dihydro-5H-pyrano[3,4-d]pyridazin-4-yl)phenol] | > 30000 | 2 |  |  |
| CN1CCC[C@@H](Nc2nnc(-c3ccc(Cl)cc3O)c3c2COCC3)C1 [Example 225, (R)-5-chloro-2-(4-((1-methylpiperidin-3-yl)amino)-7,8-dihydro-5H-pyrano[3,4-d]pyridazin-1-yl)phenol] | > 30000 | 2 | 22 | 1.5 |
| CN1CCC[C@@H](Nc2nnc(-c3ccccc3O)c3c2COCC3)C1 [Example 226, (R)-2-(4-((1-methylpiperidin-3-yl)amino)-7,8-dihydro-5H-pyrano[3,4-d]pyridazin-1-yl)phenol] | > 30000 | 9 | 21 | 1.3 |
| Cc1ccc(-c2nnc(NC34CCC(O)(CC3)C4)c3c2COCC3)c(O)c1 [Example 232, 4-((4-(2-hydroxy-4-methylphenyl)-7,8-dihydro-5H-pyrano[3,4-d]pyridazin-1-yl)amino)bicyclo[2.2.1]heptan-1-ol] | > 30000 | 155 |  |  |

More lines, now with the values ahead:

| IC50 (NF-κB pathway) [nM] | IC50 (NLRP3 inflammasome) [nM] | efflux ratio at 60 min, 1 µM (MDR1 (P-gp)) | Papp A→B at 60 min, 1 µM (MDR1 (P-gp)) [×10⁻⁶ cm/s] | SMILES |
| --- | --- | --- | --- | --- |
| > 30000 | 10 | 17 | 1.7 | Cc1ccc(-c2nnc(N[C@@H]3C[C@@H](F)CN(C)C3)c3c2COCC3)c(O)c1 [Example 201, 2-(1-(((3R,5R)-5-fluoro-1-methylpiperidin-3-yl)amino)-7,8-dihydro-5H-pyrano[3,4-d]pyridazin-4-yl)-5-methylphenol] |
| > 30000 | 425 |  |  | COc1ccc(-c2nnc(N[C@@H]3C[C@@H](F)CN(C)C3)c3c2CCOC3)c(C(F)F)c1 [Example 206, 1-(2-(difluoromethyl)-4-methoxyphenyl)-N-((3R,5R)-5-fluoro-1-methylpiperidin-3-yl)-7,8-dihydro-5H-pyrano[3,4-d]pyridazin-4-amine] |
| > 30000 | 853 |  |  | COc1ccc(-c2nnc(N[C@@H]3C[C@@H](F)CN(C)C3)c3c2COCC3)c(C(F)F)c1 [Example 208, 4-(2-(difluoromethyl)-4-methoxyphenyl)-N-((3R,5R)-5-fluoro-1-methylpiperidin-3-yl)-7,8-dihydro-5H-pyrano[3,4-d]pyridazin-1-amine] |
| > 30000 | 1050 |  |  | COc1ccc(-c2nnc(N[C@@H]3C[C@@H](F)CN(C)C3)c3c2COCC3)c(F)c1 [Example 209, N-((3R,5R)-5-fluoro-1-methylpiperidin-3-yl)-4-(2-fluoro-4-methoxyphenyl)-7,8-dihydro-5H-pyrano[3,4-d]pyridazin-1-amine] |
| > 30000 | 757 |  |  | COc1ccc(-c2nnc(N[C@@H]3C[C@@H](F)CN(C)C3)c3c2COCC3)c(C(F)(F)F)c1 [Example 210, N-((3R,5R)-5-fluoro-1-methylpiperidin-3-yl)-4-(4-methoxy-2-(trifluoromethyl)phenyl)-7,8-dihydro-5H-pyrano[3,4-d]pyridazin-1-amine] |
| > 30000 | 1150 |  |  | CN1C[C@H](F)C[C@@H](Nc2nnc(-c3ccc(Cl)cc3F)c3c2CCOC3)C1 [Example 211, 4-(4-chloro-2-fluorophenyl)-N-((3R,5R)-5-fluoro-1-methylpiperidin-3-yl)-7,8-dihydro-5H-pyrano[3,4-d]pyridazin-1-amine] |
| > 30000 | 2 | 9 | 2.1 | CN1C[C@H](F)C[C@@H](Nc2nnc(-c3ccc(Cl)cc3O)c3c2COCC3)C1 [Example 212, 5-chloro-2-(4-(((3R,5R)-5-fluoro-1-methylpiperidin-3-yl)amino)-7,8-dihydro-5H-pyrano[3,4-d]pyridazin-1-yl)phenol] |
| > 30000 | 28 | 14 | 3.1 | CN1C[C@H](F)C[C@@H](Nc2nnc(-c3ccccc3O)c3c2COCC3)C1 [Example 213, 2-(4-(((3R,5R)-5-fluoro-1-methylpiperidin-3-yl)amino)-7,8-dihydro-5H-pyrano[3,4-d]pyridazin-1-yl)phenol] |
| > 30000 | 556 |  |  | CN1C[C@H](F)C[C@@H](Nc2nnc(-c3ccc(OC(F)(F)F)cc3F)c3c2CCOC3)C1 [Example 214, N-((3R,5R)-5-fluoro-1-methylpiperidin-3-yl)-4-(2-fluoro-4-(trifluoromethoxy)phenyl)-7,8-dihydro-5H-pyrano[3,4-d]pyridazin-1-amine] |
